The assay has as its target T1, recombinant IRAK-4 kinase (Homo sapiens, UniProt Q9NWZ3).
T1 construct: purchased Millipore, USA
T1 sequence (Q9NWZ3 1-460): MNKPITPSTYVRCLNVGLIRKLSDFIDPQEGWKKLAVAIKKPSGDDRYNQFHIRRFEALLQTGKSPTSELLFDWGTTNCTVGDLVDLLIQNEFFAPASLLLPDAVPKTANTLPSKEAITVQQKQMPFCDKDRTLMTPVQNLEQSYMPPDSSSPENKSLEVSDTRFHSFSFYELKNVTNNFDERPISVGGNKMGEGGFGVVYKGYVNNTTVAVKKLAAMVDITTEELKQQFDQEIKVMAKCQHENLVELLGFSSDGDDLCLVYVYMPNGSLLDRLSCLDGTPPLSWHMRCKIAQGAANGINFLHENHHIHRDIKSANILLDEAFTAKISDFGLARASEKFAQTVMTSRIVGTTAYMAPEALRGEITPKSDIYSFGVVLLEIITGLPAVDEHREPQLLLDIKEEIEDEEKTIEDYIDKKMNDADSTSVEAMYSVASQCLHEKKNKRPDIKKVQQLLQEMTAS
In words: IRAK-4 Biochemical Assay (TR-FRET). The following applies: 5 ng IRAK-4 kinase, 100 nM Biotin Histone H3, 20 μM ATP, 30 minutes pre-incubation, read-out: IC50 values for IRAK4 activity. As for the experimental part:
Compounds were tested for their potential to inhibit IRAK-4 enzyme in a TR-FRET assay using recombinant IRAK-4 kinase from Millipore, USA. The assay buffer was 50 mM Tris-HCl pH 7.5, 20 mM MgCl2, 1 mM EGTA, 2 mM DTT, 3 mM MnCl2 and 0.01% Tween20. 5 ng of IRAK-4 kinase was used for the assay. After pre-incubation of enzyme with test compound for 30 minutes at room temperature, a substrate mix containing 100 nM Biotin Histone H3 (Millipore, USA) and 20 μM ATP (Sigma, USA) was added and the reaction was incubated for 30 minutes. Post incubation, the reaction was stopped by the addition of stop mix containing 40 mM EDTA, 1 nM of Europium-Anti-Phospho-Histone H3 (Ser10) antibody (Perkin Elmer, USA) and 20 nM Sure Light Allophycocyanin-Streptavidin (Perkin Elmer, USA).
In general terms: TR-FRET usually uses a lanthanide donor and a delayed reading to cut background.

One may read the IC50 as the concentration that gives 50% inhibition.

Counter-ions that a name gives are not always drawn. Some results are limits rather than exact numbers.

In the case of `O=C(Nc1cc2oc(N3CCCCC3)nc2nc1N1CCCCC1)c1cccc(-c2cn[nH]c2)n1` [Example 4, N-(2,5-di(piperidin-1-yl)oxazolo[4,5-b]pyridin-6-yl)-6-(1H-pyrazol-4-yl)picolinamide hydrochloride], the IC50 lay in the range of 50 to 100 nM.
For `Cc1cc(-c2nc(C(=O)Nc3cc4oc(N5CCCCC5)nc4nc3N3CCCCC3)co2)ccn1` [Example 5, N-(2,5-di(piperidin-1-yl)oxazolo[4,5-b]pyridin-6-yl)-2-(2-methylpyridin-4-yl)oxazole-4-carboxamide] the value was below 50 nM; for `O=C(Nc1cc2oc(N3CCOCC3)nc2nc1N1CCCCC1)c1cccc(Cl)n1` [Example 8, 6-chloro-N-(2-morpholino-5-(piperidin-1-yl)oxazolo[4,5-b]pyridin-6-yl)picolinamide], below 50 nM.
For `Cn1cc(-c2cccc(C(=O)Nc3cc4oc(N5CCCCC5)nc4nc3N3CCCCC3)n2)cn1` [Example 9, N-(2,5-di(piperidin-1-yl)oxazolo[4,5-b]pyridin-6-yl)-6-(1-methyl-1H-pyrazol-4-yl)picolinamide] the value was 50 to 100 nM; for `O=C(Nc1cc2oc(N3CCCCC3)nc2nc1N1CCCCC1)c1coc(-c2ccnc(Cl)c2)n1` [Example 10, 2-(2-chloropyridin-4-yl)-N-(2,5-di(piperidin-1-yl)oxazolo[4,5-b]pyridin-6-yl)oxazole-4-carboxamide], below 50 nM.
`Cc1cc(-c2nc(C(=O)Nc3cc4oc(N5CCOCC5)nc4nc3N[C@H]3CCNC3)co2)ccn1` [Example 11, (S)-2-(2-methylpyridin-4-yl)-N-(2-morpholino-5-(pyrrolidin-3-ylamino)oxazolo[4,5-b]pyridin-6-yl)oxazole-4-carboxamide]: the IC50 was below 50 nM.
For the compound `Nc1ccc(-c2cccc(C(=O)Nc3cc4sc(N5CCOCC5)nc4cn3)n2)cn1` [Example 13, 6′-amino-N-(2-morpholinothiazolo[4,5-c]pyridin-6-yl)-[2,3′-bipyridine]-6-carboxamide], the IC50 was below 50 nM.
For `Nc1ccc(-c2cccc(C(=O)Nc3ccc4nc(N5CCOCC5)sc4n3)n2)cn1` [Example 14, 6′-amino-N-(2-morpholinothiazolo[5,4-b]pyridin-5-yl)-[2,3′-bipyridine]-6-carboxamide] the value was below 50 nM; for `Nc1ccc(-c2cccc(C(=O)Nc3cnc4nc(N5CCOCC5)sc4c3)n2)cn1` [Example 16, 6′-amino-N-(2-morpholinothiazolo[4,5-b]pyridin-6-yl)-[2,3′-bipyridine]-6-carboxamide], below 50 nM.
On to `O=C(Nc1cnc2nc(N3CCOCC3)sc2c1)c1cccc(-c2cn[nH]c2)n1` [Example 17, N-(2-morpholinothiazolo[4,5-b]pyridin-6-yl)-6-(1H-pyrazol-4-yl)picolinamide], for which the IC50 is above 100 nM.
Then `Cc1cc(-c2nc(C(=O)Nc3cc4sc(N5CCOCC5)nc4nc3N3CCCCC3)co2)ccn1` [Example 20, 2-(2-methylpyridin-4-yl)-N-(2-morpholino-5-(piperidin-1-yl)thiazolo[4,5-b]pyridin-6-yl)oxazole-4-carboxamide], with below 50 nM.
Consider `O=C(Nc1cc2sc(N3CCOCC3)nc2nc1N1CCCCC1)c1cccc(-c2cn[nH]c2)n1` [Example 21, N-(2-morpholino-5-(piperidin-1-yl)thiazolo[4,5-b]pyridin-6-yl)-6-(1H-pyrazol-4-yl)picolinamide], for which the IC50 is below 50 nM.
Then `O=C(Nc1cc2sc(N3CCCCC3)nc2nc1N1CCCCC1)c1cccc(-c2cn[nH]c2)n1` [Example 22, N-(2,5-di(piperidin-1-yl)thiazolo[4,5-b]pyridin-6-yl)-6-(1H-pyrazol-4-yl)picolinamide], with below 50 nM; and `Cc1cc(-c2nc(C(=O)Nc3cc4sc(N5CCCCC5)nc4nc3N3CCCCC3)co2)ccn1` [Example 23, N-(2,5-di(piperidin-1-yl)thiazolo[4,5-b]pyridin-6-yl)-2-(2-methylpyridin-4-yl)oxazole-4-carboxamide], with below 50 nM; and `Cc1cc(-c2nc(C(=O)Nc3cc4oc(N5CCOCC5)nc4nc3N3CCOCC3)co2)ccn1` [Example 24, N-(2,5-dimorpholinooxazolo[4,5-b]pyridin-6-yl)-2-(2-methylpyridin-4-yl)oxazole-4-carboxamide], with below 50 nM.
For `Cc1cc(-c2nc(C(=O)Nc3cc4oc(N5CCOCC5)nc4nc3N3CCN(C)CC3)co2)ccn1` [Example 25, N-(5-(4-methylpiperazin-1-yl)-2-morpholinooxazolo[4,5-b]pyridin-6-yl)-2-(2-methylpyridin-4-yl)oxazole-4-carboxamide], the IC50 was below 50 nM.
Then `COc1ccc(-c2nc(C(=O)Nc3cc4oc(N5CCCCC5)nc4nc3N3CCCCC3)co2)cn1` [Example 26, N-(2,5-di(piperidin-1-yl)oxazolo[4,5-b]pyridin-6-yl)-2-(6-methoxypyridin-3-yl)oxazole-4-carboxamide], with below 50 nM; and `Cc1ncccc1-c1nc(C(=O)Nc2cc3oc(N4CCCCC4)nc3nc2N2CCCCC2)co1` [Example 27, N-(2,5-di(piperidin-1-yl)oxazolo[4,5-b]pyridin-6-yl)-2-(2-methylpyridin-3-yl)oxazole-4-carboxamide], with below 50 nM.
On to `O=C(Nc1cc2oc(N3CCCCC3)nc2nc1N1CCCCC1)c1coc(-c2cccnc2O)n1` [Example 28, N-(2,5-di(piperidin-1-yl)oxazolo[4,5-b]pyridin-6-yl)-2-(2-hydroxypyridin-3-yl)oxazole-4-carboxamide], for which the IC50 was above 100 nM.
As for `O=C(Nc1cc2oc(N3CCOCC3)nc2nc1N1CCCCC1)c1coc(-c2cccnc2O)n1` [Example 29, 2-(2-hydroxypyridin-3-yl)-N-(2-morpholino-5-(piperidin-1-yl)oxazolo[4,5-b]pyridin-6-yl)oxazole-4-carboxamide], the half-maximal inhibitory concentration (IC50) is below 50 nM.
For `O=C(Nc1cc2oc(N3CCCCC3)nc2nc1N1CCCCC1)c1coc(-c2ccc(O)nc2)n1` [Example 30, N-(2,5-di(piperidin-1-yl)oxazolo[4,5-b]pyridin-6-yl)-2-(6-hydroxypyridin-3-yl)oxazole-4-carboxamide] the value was above 100 nM.
For the compound `Cc1ncccc1-c1nc(C(=O)Nc2cc3oc(N4CCOCC4)nc3nc2N2CCCCC2)co1` [Example 32, 2-(2-methylpyridin-3-yl)-N-(2-morpholino-5-(piperidin-1-yl)oxazolo[4,5-b]pyridin-6-yl)oxazole-4-carboxamide], the half-maximal inhibitory concentration (IC50) was below 50 nM.
For the compound `Cc1cnccc1-c1nc(C(=O)Nc2cc3oc(N4CCOCC4)nc3nc2N2CCCCC2)co1` [Example 33, 2-(3-methylpyridin-4-yl)-N-(2-morpholino-5-(piperidin-1-yl)oxazolo[4,5-b]pyridin-6-yl)oxazole-4-carboxamide], the half-maximal inhibitory concentration (IC50) is below 50 nM.
On to `Cc1cnccc1-c1nc(C(=O)Nc2cc3oc(N4CCCCC4)nc3nc2N2CCCCC2)co1` [Example 34, N-(2,5-di(piperidin-1-yl)oxazolo[4,5-b]pyridin-6-yl)-2-(3-methylpyridin-4-yl)oxazole-4-carboxamide], for which the half-inhibitory concentration (IC50) was below 50 nM.
Turning to `Cc1ccc(-c2nc(C(=O)Nc3cc4oc(N5CCOCC5)nc4nc3N3CCCCC3)co2)cn1` [Example 35, 2-(6-methylpyridin-3-yl)-N-(2-morpholino-5-(piperidin-1-yl)oxazolo[4,5-b]pyridin-6-yl)oxazole-4-carboxamide], the concentration for half-maximal inhibition (IC50) is below 50 nM.
Then `Cc1ccc(-c2nc(C(=O)Nc3cc4oc(N5CCCCC5)nc4nc3N3CCCCC3)co2)cn1` [Example 37, N-(2,5-di(piperidin-1-yl)oxazolo[4,5-b]pyridin-6-yl)-2-(6-methylpyridin-3-yl)oxazole-4-carboxamide], with below 50 nM; and `N[C@H]1CCN(c2nc(C(=O)Nc3cc4oc(N5CCOCC5)nc4nc3N3CCCCC3)co2)C1` [Example 42, (S)-2-(3-aminopyrrolidin-1-yl)-N-(2-morpholino-5-(piperidin-1-yl)oxazolo[4,5-b]pyridin-6-yl)oxazole-4-carboxamide], with 50 to 100 nM.
Then `N[C@H]1CCN(c2nc(C(=O)Nc3cc4oc(N5CCOCC5)nc4nc3C3CC3)co2)C1` [Example 47, (S)-2-(3-aminopyrrolidin-1-yl)-N-(5-cyclopropyl-2-morpholinooxazolo[4,5-b]pyridin-6-yl)oxazole-4-carboxamide], with below 50 nM.
For `Cc1cc(-c2nc(C(=O)Nc3cc4oc(N5CCCC5)nc4nc3N3CCCCC3)co2)ccn1` [Example 48, 2-(2-methylpyridin-4-yl)-N-(5-(piperidin-1-yl)-2-(pyrrolidin-1-yl)oxazolo[4,5-b]pyridin-6-yl)oxazole-4-carboxamide hydrochloride] the value was above 100 nM; for `Cn1cc(-c2cccc(C(=O)Nc3cc4sc(N5CCCCC5)nc4nc3N3CCCCC3)n2)cn1` [Example 50, N-(2,5-di(piperidin-1-yl)thiazolo[4,5-b]pyridin-6-yl)-6-(1-methyl-1H-pyrazol-4-yl)picolinamide hydrochloride], below 50 nM.

These data come from patent US10047104B2, “Bicyclic heterocyclyl derivatives as IRAK4 inhibitors” (Aurigene Discovery Technologies Limited, priority 2014, dated 2018).
